Measured values from patent US8217172B2, “Solid forms of 1-ethyl-3-(5-(5-fluoropyridin-3-yl)-7-(pyrimidin-2-yl)-1H-benzo[d]imidazol-2-yl)urea” (Vertex Pharmaceuticals Incorporated, priority 2007, dated 2012).

How the values were obtained:
Assay type in all cases: physicochemical
[1] = Solubility in various media (equilibration on a shaking bed for 24 hours, HPLC); settings: for Solubility, Actual Conc / Solubility in 0.05M Buffers, Actual Conc: 24 h equilibration; for Solubility, Total Conc: ambient, 24 h
Experimental: (§1) Solubility: The solubility of form IA in various media was determined at ambient conditions by equilibrating aliquots of the drug powder with the solvents on a shaking bed for 24 hours. The samples were centrifuged, the saturated solutions of the drug were then separated and analyzed by HPLC. The sample volume was 100 μL and the target concentration was 10 mg/mL. The saturated solutions were diluted appropriately and analyzed by HPLC.
Solubility: Solubility of form IIC in various media was determined at ambient conditions by equilibrating aliquots of the drug powder with the solvents on a shaking bed for 24 hours. Samples were spun and the supernatant was carefully separated and analyzed by HPLC at the 24-hour timepoint using a stability-indicating method. […] Some variability may occur between lots of a particular sample.
as §1, with “Solubility” for “The solubility”, “IIIB” for “IA”, “medium” for “solvents”, “μL,” for “μL”, “mg/ml.” for “mg/mL.”

[2] = Dynamic Vapor Sorption (DVS), step isothermal study; settings: 25° C.; for release of adsorbed water in the desorption stage: 95% to 5% RH; for moisture picked up at 95% relative humidity (RH): adsorption 5% to 95% RH; for weight gain from 5% to 95% relative humidity: step isothermic study (DVS)
Experimental: (§2) Dynamic Vapor Sorption (DVS): A step isothermal study (25° C.) was conducted on a representative sample of form IA using a VTI SGA 100 Symmetric Vapor Sorption Analyzer. An aliquot of approximately 10 mg was weighed in an open platinum dish and exposed to different levels of humidity at 25° C. Relative humidity (RH) steps were from 5% to 95% (adsorption) and from 95% to 5% in increments of 5% RH (desorption). The equilibration criterion was 0.0100 wt % change in 5 min, with a max equilibration time of 180 min. The sample picked up ˜8 wt % moisture at 95% relative humidity (RH).
as §2, with “a” for “a representative”, “form IIA” for “form IA”, “The material” for “The sample”, “up ˜11” for “up ˜8”
as §2, with “a” for “a representative”, “form IIC” for “form IA”, “The material” for “The sample”, “up ˜4” for “up ˜8”
Water Vapor Sorption analysis: Vapor Sorption analysis of a sample of form IIIB was done using a SGA-100 Vapor Sorption Analyzer (VTI, Hialeah, Fla.). A sample with weight of approximately 7-12 mg was measured isothermally at 25° C. Data was collected by Isotherm software and analyzed by Microsoft Excel with a VTI macro (VTI, Hialeah, Fla.). The sample gained about 4.6% in weight from 5 to 95% RH (25° C.).

[3] = Stability analysis (chemical stability by HPLC, physical stability by XRPD); settings: for chemically and physically stable for at least about / chemically and physically stable for at least about (e.g. value): various storage conditions, including 40° C./75% RH (e.g., open container)
Text: In some embodiments, less than 25% of the form of Compound 1 decomposes, in some embodiments, less than about 20%, less than about 15%, less than about 10%, less than about 5%, less than about 3%, less than about 1%, less than about 0.5% of the form of Compound 1 decomposes under the conditions specified. In some embodiments, no detectable amount of the form of Compound 1 decomposes.
In some embodiments, less than 25% of the form of Compound 1 changes into one or more different physical forms when subjected to specified conditions, In some embodiments, less than about 20%, less than about 15%, less than about 10%, less than about 5%, less than about 3%, less than about 1%, less than about 0.5% of the form of Compound 1 changes into one or more different physical forms of Compound 1 when subjected to specified conditions. In some embodiments, no detectable amount of the form of Compound 1 changes into one or more different physical forms of Compound 1.

[4] = aqueous solution, pH of about 1.6

Q: Which results are given for `CCNC(=O)Nc1nc2cc(-c3cncc(F)c3)cc(-c3ncccn3)c2[nH]1.CCS(=O)(=O)O` [Form IIC, 1-ethyl-3-(5-(5-fluoropyridin-3-yl)-7-(pyrimidin-2-yl)-1H-benzo[d]imidazol-2-yl)urea•monoesylate]?
A: Solubility, Actual Conc ([1]; 0.1N HCl, pH 1.10, target 100 mg/ml): 105 mg/mL; Solubility, Actual Conc ([1]; 0.5% Methylcellulose (MC)/0.5% Sodium Lauryl Sulfate (SLS), pH 1.58, target 100 mg/ml): 94.8 mg/mL; Solubility, Actual Conc ([1]; 0.9% Sodium Chloride, target 100 mg/ml): 33.6 mg/mL; Solubility, Actual Conc ([1]; 1% Deoxycholic sodium salt (DOSS), pH 1.71, target 150 mg/ml): 125 mg/mL; Solubility, Actual Conc ([1]; 1% Docusate, pH 1.58, target 150 mg/ml): 159 mg/mL; Solubility, Actual Conc ([1]; 1% Pluronic F68, pH 1.57, target 150 mg/ml): 155 mg/mL; Solubility, Actual Conc ([1]; 1% Pluronic F108, pH 1.58, target 150 mg/ml): 159 mg/mL; Solubility, Actual Conc ([1]; 1% SLS, pH 1.56, target 150 mg/ml): 126 mg/mL; Solubility, Actual Conc ([1]; 1% Tween 80, pH 1.60, target 150 mg/ml): 130 mg/mL; Solubility, Actual Conc ([1]; 4% Glycerol, pH 1.59, target 150 mg/ml): 162 mg/mL; Solubility, Actual Conc ([1]; 10% Cremophor, pH 1.64, target 150 mg/ml): 137 mg/mL; Solubility, Actual Conc ([1]; 10% Polyvinyl pyrrolidone (PVP) K30, pH 1.70, target 150 mg/ml): 152 mg/mL; Solubility, Actual Conc ([1]; 10% Solutol, pH 1.61, target 150 mg/ml): 170 mg/mL; Solubility, Actual Conc ([1]; 10% Tween 80, pH 1.64, target 150 mg/ml): 144 mg/mL; Solubility, Actual Conc ([1]; 10% Vitamin E TPGS, pH 1.58, target 150 mg/ml): 138 mg/mL; Solubility in 0.05M Buffers, Actual Conc ([1]; Potassium chloride hydrochloric acid, pH 1, experimental pH 1.01): 113 mg/mL; Solubility in 0.05M Buffers, Actual Conc ([1]; Potassium phosphate monobasic-sodium hydroxide, pH 7): 48.2 mg/mL; Solubility in 0.05M Buffers, Actual Conc ([1]; Potassium phosphate monobasic-sodium hydroxide, pH 9, experimental pH 1.75): 67.0 mg/mL; Solubility, Actual Conc ([1]; Tetraglucol:Water (1:1), pH 2.08, target 50 mg/ml): 29.6 mg/mL; Solubility, Actual Conc ([1]; Water, pH 1.60, target 150 mg/ml): 152 mg/mL; solubility [1, 4]: > 150 mg/mL; Solubility, Actual Conc ([1]; pH 7 Tris Buffer, target 100 mg/ml): 30.0 mg/mL; hydrate formation ([2]; DVS, 5% to 95% RH): did not form a hydrate; release of adsorbed water in the desorption stage ([2]; DVS): All adsorbed water was released; moisture picked up at 95% relative humidity (RH) ([2]; DVS): ~4 wt %; chemically and physically stable for at least about [3]: at least 2 weeks; chemically and physically stable for at least about (e.g. value) [3]: at least 6 months

Q: Which solubility [1, 4] does the source give for `CCNC(=O)Nc1nc2cc(-c3cncc(F)c3)cc(-c3ncccn3)c2[nH]1.CCS(=O)(=O)O` [Form IIB, 1-ethyl-3-(5-(5-fluoropyridin-3-yl)-7-(pyrimidin-2-yl)-1H-benzo[d]imidazol-2-yl)urea•monoesylate] here?
A: Its solubility is > 150 mg/mL.

Q: Which results are given for `CCNC(=O)Nc1nc2cc(-c3cncc(F)c3)cc(-c3ncccn3)c2[nH]1.CCS(=O)(=O)O` [crystalline 1-ethyl-3-(5-(5-fluoropyridin-3-yl)-7-(pyrimidin] [1-ethyl-3-(5-(5-fluoropyridin-3-yl)-7-(pyrimidin-2-yl)-1H-benzo[d]imidazol-2-yl)urea.monoesylate]?
A: solubility [1, 4]: greater than 150 mg/ml; remains chemically stable for at least about ([3]; 40° C./75% relative humidity): at least 2 weeks; remains in substantially the same physical form for at least ([3]; 40° C./75% relative humidity): at least 6 months; remains in substantially the same physical form for at least about ([3]; 40° C./75% relative humidity): at least 2 weeks

Q: With `CCNC(=O)Nc1nc2cc(-c3cncc(F)c3)cc(-c3ncccn3)c2[nH]1.CS(=O)(=O)O` [Form IIIB, 1-ethyl-3-(5-(5-fluoropyridin-3-yl)-7-(pyrimidin-2-yl)-1H-benzo[d]imidazol-2-yl)urea•monomesylate] as the molecule, how does the “Solubility, Total Conc” value ([1]; Captisol, 20%) read?
A: The value was 3.81 mg/mL.

Q: And the “Solubility, Total Conc” value ([1]; Captisol, 30%, pH 7)?
A: Its value is 0.634 mg/mL.

Q: What about the “Solubility, Total Conc” value ([1]; Ethanol) of the same molecule?
A: The value was 0.439 mg/mL.

Q: And the “Solubility, Total Conc” value ([1]; HCl, 0.1N)?
A: The value was 12.2 mg/mL.

Q: What about the “Solubility, Total Conc” value ([1]; Miglyol810) of the same molecule?
A: The value was 0.0219 mg/mL.

Q: What about the “Solubility, Total Conc” value ([1]; Octanol) of the same molecule?
A: Its value is 0.0584 mg/mL.

Q: And the “Solubility, Total Conc” value ([1]; PEG400)?
A: Its value is 0.729 mg/mL.

Q: And the “Solubility, Total Conc” value ([1]; PluronicF108, 1%)?
A: Its value is >12.0 mg/mL.

Q: What about the “Solubility, Total Conc” value ([1]; PropyleneGlycol) of the same molecule?
A: Its value is 5.74 mg/mL.

Q: What about the “Solubility, Total Conc” value ([1]; SGF) of the same molecule?
A: Its value is >12.0 mg/mL.

Q: What about the “Solubility, Total Conc” value ([1]; SIF) of the same molecule?
A: Its value is 0.0284 mg/mL.

Q: What about the “Solubility, Total Conc” value ([1]; SodiumLaurylSulfate, 1%) of the same molecule?
A: Its value is 0.623 mg/mL.

Q: And the “Solubility, Total Conc” value ([1]; TrisBuffer, pH 7)?
A: Its value is 0.0276 mg/mL.

Q: And the “Solubility, Total Conc” value ([1]; Vitamin E TPGS, 10%, 1% HPMC)?
A: Its value is >12.0 mg/mL.

Q: And the “Solubility, Total Conc” value ([1]; Vitamin E TPGS, 10%)?
A: The value was 11.5 mg/mL.

Q: And the “Solubility, Total Conc” value ([1]; Water)?
A: Its value is >12.0 mg/mL.

Q: And the solubility ([1]; at pH of about 4.4)?
A: Its solubility is > 12 mg/mL.

Q: What about the solubility ([1]; in simulated gastric fluid (SGF)) of the same molecule?
A: Its solubility is > 12 mg/mL.

Q: What about the “weight gain from 5% to 95% relative humidity” value [2] of the same molecule?
A: Its value is “about 4.6%”.

Q: What about the “chemically and physically stable for at least about” value [3] of the same molecule?
A: Its value is “at least 2 weeks”.

Q: What about the “chemically and physically stable for at least about (e.g. value)” value [3] of the same molecule?
A: The value was “at least 1 months”.

Q: For `CCNC(=O)Nc1nc2cc(-c3cncc(F)c3)cc(-c3ncccn3)c2[nH]1.CCS(=O)(=O)O` [Form IID, 1-ethyl-3-(5-(5-fluoropyridin-3-yl)-7-(pyrimidin-2-yl)-1H-benzo[d]imidazol-2-yl)urea•monoesylate], which solubility [1, 4] is on record?
A: Its solubility is > 150 mg/mL.

Q: For `CCNC(=O)Nc1nc2cc(-c3cncc(F)c3)cc(-c3ncccn3)c2[nH]1.CCS(=O)(=O)O` [Form IIA, 1-ethyl-3-(5-(5-fluoropyridin-3-yl)-7-(pyrimidin-2-yl)-1H-benzo[d]imidazol-2-yl)urea•monoesylate], which solubility [1, 4] is on record?
A: Its solubility is > 150 mg/mL.

Q: What about the “release of adsorbed water in the desorption stage” value ([2]; DVS) of the same molecule?
A: The value was “Not all of the adsorbed water was released”.

Q: And the “moisture picked up at 95% relative humidity (RH)” value ([2]; DVS)?
A: The value was ~11 wt %.

Q: And the “weight gain from 5% to 95% relative humidity” value [2]?
A: Its value is “about 10%”.

Q: What about the “change of solid form on storage” value ([3]; 40° C./75% RH for about 24 hours or for about 2 weeks) of the same molecule?
A: The value was “converted to form IIB”.

Q: For `CCNC(=O)Nc1nc2cc(-c3cncc(F)c3)cc(-c3ncccn3)c2[nH]1.CS(=O)(=O)O` [crystalline1-ethyl-3-(5-(5-fluoropyridin-3-yl)-7-(pyrimidin-] [1-ethyl-3-(5-(5-fluoropyridin-3-yl)-7-(pyrimidin-2-yl)-1H-benzo[d]imidazol-2-yl)urea.monomesylate], which solubility ([1]; at pH of about 4.4) is on record?
A: The solubility was “greater than 12 mg/ml”.

Q: What about the “weight gain from 5% to 95% relative humidity” value [2] of the same molecule?
A: Its value is 4.6%.

Q: What about the “remains chemically stable for at least” value ([3]; 40° C./75% relative humidity) of the same molecule?
A: The value was “at least 1 months”.

Q: And the “remains in substantially the same physical form for at least” value ([3]; 40° C./75% relative humidity)?
A: The value was “at least 1 months”.
